5 compounds from the supplement of paper PMC10307832 can be followed below.

The first experiment relates to NCI-H1437. In words: relative viability (nuclei count vs DMSO), 5 days (fraction); higher = more cells survive. As to conditions: first compound 0.08 µM. The gist of the method:
(§1)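 Cells from lung cancer lines were seeded into 1536-well plates and, one day later, dosed by pin tool. Treatments were either a single drug or a fixed dose of an anchor drug with five library-drug doses (not always all listed) in √10 steps. After 5 days, nuclei were stained in a one-step fixation (final 0.05% Triton X-100, 1% formaldehyde, 1 ug/ml Hoechst) and counted on 4× images, and relative viability is the treated-to-vehicle nuclei ratio, as the median of duplicate plates.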
On to `C=C1C(=O)O[C@@H](CCCCCCCC)[C@@H]1C(=O)O` [C-75] + CC(=O)c1c(C)c2cnc(Nc3ccc(N4CCNCC4)cn3)nc2n(C2CCCC2)c1=O [Palbociclib] (partner 0.5 µM), for which the relative viability turned out to be 0.301.

The same experiment, now with this note: first compound 0.253 µM.
Consider `Oc1nc(-c2ccc(C(F)(F)F)cc2)nc2c1CSCC2` [XAV939] + O=C(CCCCCCC(=O)Nc1ccccc1)NO [Vorinostat] (partner 1 µM), for which the relative viability came out at 0.649.
On the same count and under the same terms, the same measure for `C=C1C(=O)O[C@@H](CCCCCCCC)[C@@H]1C(=O)O` [C-75] + Nc1nc2[nH]cc(CCc3ccc(C(=O)N[C@@H](CCC(=O)O)C(=O)O)cc3)c2c(=O)[nH]1 [Pemetrexed] (partner 0.2 µM): 0.324.
Take `Oc1nc(-c2ccc(C(F)(F)F)cc2)nc2c1CSCC2` [XAV939] + O=C(c1cc(Cc2n[nH]c(=O)c3ccccc23)ccc1F)N1CCN(C(=O)C2CC2)CC1 [Olaparib] (partner 8 µM): the relative viability was 0.593.
On the same count and under the same terms, for `Oc1nc(-c2ccc(C(F)(F)F)cc2)nc2c1CSCC2` [XAV939] + CC(=O)c1c(C)c2cnc(Nc3ccc(N4CCNCC4)cn3)nc2n(C2CCCC2)c1=O [Palbociclib] (partner 0.5 µM) the value was 0.297; for `C=C1C(=O)O[C@@H](CCCCCCCC)[C@@H]1C(=O)O` [C-75] + CC(=O)c1c(C)c2cnc(Nc3ccc(N4CCNCC4)cn3)nc2n(C2CCCC2)c1=O [Palbociclib] (partner 0.5 µM), 0.381.

Still in this experiment, the particulars now being: first compound 0.8 µM.
`Oc1nc(-c2ccc(C(F)(F)F)cc2)nc2c1CSCC2` [XAV939] + O=C(CCCCCCC(=O)Nc1ccccc1)NO [Vorinostat] (partner 1 µM) displayed a relative viability of 0.62.
Same read-out and setting: for `C=C1C(=O)O[C@@H](CCCCCCCC)[C@@H]1C(=O)O` [C-75] + Nc1nc2[nH]cc(CCc3ccc(C(=O)N[C@@H](CCC(=O)O)C(=O)O)cc3)c2c(=O)[nH]1 [Pemetrexed] (partner 0.2 µM) the value was 0.321; for `Oc1nc(-c2ccc(C(F)(F)F)cc2)nc2c1CSCC2` [XAV939] + O=C(c1cc(Cc2n[nH]c(=O)c3ccccc23)ccc1F)N1CCN(C(=O)C2CC2)CC1 [Olaparib] (partner 8 µM), 0.558; for `Oc1nc(-c2ccc(C(F)(F)F)cc2)nc2c1CSCC2` [XAV939] + CC(=O)c1c(C)c2cnc(Nc3ccc(N4CCNCC4)cn3)nc2n(C2CCCC2)c1=O [Palbociclib] (partner 0.5 µM), 0.301.
The same measure, in the same setting: for `C=C1C(=O)O[C@@H](CCCCCCCC)[C@@H]1C(=O)O` [C-75] + CC(=O)c1c(C)c2cnc(Nc3ccc(N4CCNCC4)cn3)nc2n(C2CCCC2)c1=O [Palbociclib] (partner 0.5 µM) the value was 0.299.

The experiment is the same for the next values; noted with them: first compound 2.53 µM.
For the compound `Oc1nc(-c2ccc(C(F)(F)F)cc2)nc2c1CSCC2` [XAV939] + O=C(CCCCCCC(=O)Nc1ccccc1)NO [Vorinostat] (partner 1 µM), the relative viability was determined as 0.477.
In the case of `Oc1nc(-c2ccc(C(F)(F)F)cc2)nc2c1CSCC2` [XAV939] + O=C(c1cc(Cc2n[nH]c(=O)c3ccccc23)ccc1F)N1CCN(C(=O)C2CC2)CC1 [Olaparib] (partner 8 µM), the relative viability turned out to be 0.355.
Compound `Oc1nc(-c2ccc(C(F)(F)F)cc2)nc2c1CSCC2` [XAV939] + CC(=O)c1c(C)c2cnc(Nc3ccc(N4CCNCC4)cn3)nc2n(C2CCCC2)c1=O [Palbociclib] (partner 0.5 µM) gave a relative viability of 0.194.

Staying with this experiment, now noted: first compound 8 µM.
`C=C1C(=O)O[C@@H](CCCCCCCC)[C@@H]1C(=O)O` [C-75] + Nc1nc2[nH]cc(CCc3ccc(C(=O)N[C@@H](CCC(=O)O)C(=O)O)cc3)c2c(=O)[nH]1 [Pemetrexed] (partner 0.2 µM) registered a relative viability of 0.269.
The same measure, in the same setting: the same measure for `C=C1C(=O)O[C@@H](CCCCCCCC)[C@@H]1C(=O)O` [C-75] + CC(=O)c1c(C)c2cnc(Nc3ccc(N4CCNCC4)cn3)nc2n(C2CCCC2)c1=O [Palbociclib] (partner 0.5 µM): 0.312.

The subject of a further experiment is NCI-H1648. The experiment is described as above. As to conditions: first compound 0.08 µM. The gist of the method:
as §1
The compound `C=C1C(=O)O[C@@H](CCCCCCCC)[C@@H]1C(=O)O` [C-75] + Nc1nc2[nH]cc(CCc3ccc(C(=O)N[C@@H](CCC(=O)O)C(=O)O)cc3)c2c(=O)[nH]1 [Pemetrexed] (partner 0.2 µM) came in with a relative viability of 0.731.
The same measure, in the same setting: for `C=C1C(=O)O[C@@H](CCCCCCCC)[C@@H]1C(=O)O` [C-75] + CC(=O)c1c(C)c2cnc(Nc3ccc(N4CCNCC4)cn3)nc2n(C2CCCC2)c1=O [Palbociclib] (partner 0.5 µM) the value was 0.251.

The same experiment, now with this note: first compound 0.253 µM.
The compound `Oc1nc(-c2ccc(C(F)(F)F)cc2)nc2c1CSCC2` [XAV939] + O=C(CCCCCCC(=O)Nc1ccccc1)NO [Vorinostat] (partner 1 µM) showed a relative viability of 0.522.
Turning to `C=C1C(=O)O[C@@H](CCCCCCCC)[C@@H]1C(=O)O` [C-75] + Nc1nc2[nH]cc(CCc3ccc(C(=O)N[C@@H](CCC(=O)O)C(=O)O)cc3)c2c(=O)[nH]1 [Pemetrexed] (partner 0.2 µM), the relative viability is 1.01.
The same measure, in the same setting: for `Oc1nc(-c2ccc(C(F)(F)F)cc2)nc2c1CSCC2` [XAV939] + O=C(c1cc(Cc2n[nH]c(=O)c3ccccc23)ccc1F)N1CCN(C(=O)C2CC2)CC1 [Olaparib] (partner 8 µM) the value was 0.63; for `Oc1nc(-c2ccc(C(F)(F)F)cc2)nc2c1CSCC2` [XAV939] + CC(=O)c1c(C)c2cnc(Nc3ccc(N4CCNCC4)cn3)nc2n(C2CCCC2)c1=O [Palbociclib] (partner 0.5 µM), 0.28; for `C=C1C(=O)O[C@@H](CCCCCCCC)[C@@H]1C(=O)O` [C-75] + CC(=O)c1c(C)c2cnc(Nc3ccc(N4CCNCC4)cn3)nc2n(C2CCCC2)c1=O [Palbociclib] (partner 0.5 µM), 0.398.

Still in this experiment, the particulars now being: first compound 0.8 µM.
Compound `Oc1nc(-c2ccc(C(F)(F)F)cc2)nc2c1CSCC2` [XAV939] + O=C(CCCCCCC(=O)Nc1ccccc1)NO [Vorinostat] (partner 1 µM) yielded a relative viability of 0.315.
Same read-out and setting: for `C=C1C(=O)O[C@@H](CCCCCCCC)[C@@H]1C(=O)O` [C-75] + Nc1nc2[nH]cc(CCc3ccc(C(=O)N[C@@H](CCC(=O)O)C(=O)O)cc3)c2c(=O)[nH]1 [Pemetrexed] (partner 0.2 µM) the value was 0.681.
The compound `Oc1nc(-c2ccc(C(F)(F)F)cc2)nc2c1CSCC2` [XAV939] + O=C(c1cc(Cc2n[nH]c(=O)c3ccccc23)ccc1F)N1CCN(C(=O)C2CC2)CC1 [Olaparib] (partner 8 µM) displayed a relative viability of 1.12.
On the same count and under the same terms, the same measure for `Oc1nc(-c2ccc(C(F)(F)F)cc2)nc2c1CSCC2` [XAV939] + CC(=O)c1c(C)c2cnc(Nc3ccc(N4CCNCC4)cn3)nc2n(C2CCCC2)c1=O [Palbociclib] (partner 0.5 µM): 0.27.
Still for that read-out and setting: for `C=C1C(=O)O[C@@H](CCCCCCCC)[C@@H]1C(=O)O` [C-75] + CC(=O)c1c(C)c2cnc(Nc3ccc(N4CCNCC4)cn3)nc2n(C2CCCC2)c1=O [Palbociclib] (partner 0.5 µM) the value was 0.292.

The experiment is the same for the next values; noted with them: first compound 2.53 µM.
On to `Oc1nc(-c2ccc(C(F)(F)F)cc2)nc2c1CSCC2` [XAV939] + O=C(CCCCCCC(=O)Nc1ccccc1)NO [Vorinostat] (partner 1 µM), for which the relative viability worked out at 0.285.
In turn, `Oc1nc(-c2ccc(C(F)(F)F)cc2)nc2c1CSCC2` [XAV939] + O=C(c1cc(Cc2n[nH]c(=O)c3ccccc23)ccc1F)N1CCN(C(=O)C2CC2)CC1 [Olaparib] (partner 8 µM) came in with a relative viability of 0.355.
`Oc1nc(-c2ccc(C(F)(F)F)cc2)nc2c1CSCC2` [XAV939] + CC(=O)c1c(C)c2cnc(Nc3ccc(N4CCNCC4)cn3)nc2n(C2CCCC2)c1=O [Palbociclib] (partner 0.5 µM) yielded a relative viability of 0.216.
